From ChEMBL document CHEMBL4665624, “Synthesis of 5-(4-(1H-phenanthro[9,10-d]imidazol-2-yl)benzylidene)thiazolidine-2,4-dione as promising DNA and serum albumin-binding agents and evaluation of antitumor activity” (Eur J Med Chem, 2019)
Activity calls are given as the source filed them. No cut-off for these calls is given here.

Columns and labels:
CCRF-CEM = assay: Antitumor activity against human CCRF-CEM cells assessed as cell growth inhibition at 10 uM incubated for 48 hrs by sulforhodamine B assay; type: functional; settings: read-out: GI
HL-60(TB) = assay: Antitumor activity against human HL-60(TB) cells assessed as cell growth inhibition at 10 uM incubated for 48 hrs by sulforhodamine B assay; type: functional; settings: read-out: GI
K562 = assay: Antitumor activity against human K562 cells assessed as cell growth inhibition at 10 uM incubated for 48 hrs by sulforhodamine B assay; type: functional; settings: read-out: GI
MOLT-4 = assay: Antitumor activity against human MOLT4 cells assessed as cell growth inhibition at 10 uM incubated for 48 hrs by sulforhodamine B assay; type: functional; settings: read-out: GI
RPMI-8226 = assay: Antitumor activity against human RPMI8226 cells assessed as cell growth inhibition at 10 uM incubated for 48 hrs by sulforhodamine B assay; type: functional; settings: read-out: GI
SR = assay: Antitumor activity against human SR cells assessed as cell growth inhibition at 10 uM incubated for 48 hrs by sulforhodamine B assay; type: functional; settings: read-out: GI
HOP-92 = assay: Antitumor activity against human HOP92 cells assessed as cell growth inhibition at 10 uM incubated for 48 hrs by sulforhodamine B assay; type: functional; settings: read-out: GI
NCI-H226 = assay: Antitumor activity against human NCI-H226 assessed as cell growth inhibition at 10 uM incubated for 48 hrs by sulforhodamine B assay; type: functional; settings: read-out: GI
NCI-H23 = assay: Antitumor activity against human NCI-H23 cells assessed as cell growth inhibition at 10 uM incubated for 48 hrs by sulforhodamine B assay; type: functional; settings: read-out: GI
NCI-H522 = assay: Antitumor activity against human NCI-H522 cells assessed as cell growth inhibition at 10 uM incubated for 48 hrs by sulforhodamine B assay; type: functional; settings: read-out: GI
HCT-116 = assay: Antitumor activity against human HCT116 cells assessed as cell growth inhibition at 10 uM incubated for 48 hrs by sulforhodamine B assay; type: functional; settings: read-out: GI
HCT-15 = assay: Antitumor activity against human HCT15 cells assessed as cell growth inhibition at 10 uM incubated for 48 hrs by sulforhodamine B assay; type: functional; settings: read-out: GI
KM12 = assay: Antitumor activity against human KM12 cells assessed as cell growth inhibition at 10 uM incubated for 48 hrs by sulforhodamine B assay; type: functional; settings: read-out: GI
SF-268 = assay: Antitumor activity against human SF268 cells assessed as cell growth inhibition at 10 uM incubated for 48 hrs by sulforhodamine B assay; type: functional; settings: read-out: GI
SF-295 = assay: Antitumor activity against human SF295 cells assessed as cell growth inhibition at 10 uM incubated for 48 hrs by sulforhodamine B assay; type: functional; settings: read-out: GI
SNB-75 = assay: Antitumor activity against human SNB-75 cells assessed as cell growth inhibition at 10 uM incubated for 48 hrs by sulforhodamine B assay; type: functional; settings: read-out: GI
U-251 = assay: Antitumor activity against human U251 cells assessed as cell growth inhibition at 10 uM incubated for 48 hrs by sulforhodamine B assay; type: functional; settings: read-out: GI
LOX IMVI = assay: Antitumor activity against human LOX IMVI cells assessed as cell growth inhibition at 10 uM incubated for 48 hrs by sulforhodamine B assay; type: functional; settings: read-out: GI
Malme-3M = assay: Antitumor activity against human MALME-3M cells assessed as cell growth inhibition at 10 uM incubated for 48 hrs by sulforhodamine B assay; type: functional; settings: read-out: GI
SK-MEL-28 = assay: Antitumor activity against human SK-MEL-28 cells assessed as cell growth inhibition at 10 uM incubated for 48 hrs by sulforhodamine B assay; type: functional; settings: read-out: GI
UACC-62 = assay: Antitumor activity against human UACC-62 cells assessed as cell growth inhibition at 10 uM incubated for 48 hrs by sulforhodamine B assay; type: functional; settings: read-out: GI
IGROV-1 = assay: Antitumor activity against human IGROV1 cells assessed as cell growth inhibition at 10 uM incubated for 48 hrs by sulforhodamine B assay; type: functional; settings: read-out: GI
OVCAR-3 = assay: Antitumor activity against human OVCAR-3 cells assessed as cell growth inhibition at 10 uM incubated for 48 hrs by sulforhodamine B assay; type: functional; settings: read-out: GI
OVCAR-4 = assay: Antitumor activity against human OVCAR-4 cells assessed as cell growth inhibition at 10 uM incubated for 48 hrs by sulforhodamine B assay; type: functional; settings: read-out: GI
NCI/ADR-RES = assay: Antitumor activity against human NCI/ADR-RES cells assessed as cell growth inhibition at 10 uM incubated for 48 hrs by sulforhodamine B assay; type: functional; settings: read-out: GI
SK-OV-3 = assay: Antitumor activity against human SK-OV-3 cells assessed as cell growth inhibition at 10 uM incubated for 48 hrs by sulforhodamine B assay; type: functional; settings: read-out: GI
ACHN = assay: Antitumor activity against human ACHN cells assessed as cell growth inhibition at 10 uM incubated for 48 hrs by sulforhodamine B assay; type: functional; settings: read-out: GI
SN12C = assay: Antitumor activity against human SN12C cells assessed as cell growth inhibition at 10 uM incubated for 48 hrs by sulforhodamine B assay; type: functional; settings: read-out: GI
UO-31 = assay: Antitumor activity against human UO-31 cells assessed as cell growth inhibition at 10 uM incubated for 48 hrs by sulforhodamine B assay; type: functional; settings: read-out: GI
PC-3 = assay: Antitumor activity against human PC-3 cells assessed as cell growth inhibition at 10 uM incubated for 48 hrs by sulforhodamine B assay; type: functional; settings: read-out: GI
MCF7 = assay: Antitumor activity against human MCF7 cells assessed as cell growth inhibition at 10 uM incubated for 48 hrs by sulforhodamine B assay; type: functional; settings: read-out: GI
MDA-MB-231 = assay: Antitumor activity against human MDA-MB-231/ATCC cells assessed as cell growth inhibition at 10 uM incubated for 48 hrs by sulforhodamine B assay; type: functional; settings: read-out: GI
BT-549 = assay: Antitumor activity against human BT-549 cells assessed as cell growth inhibition at 10 uM incubated for 48 hrs by sulforhodamine B assay; type: functional; settings: read-out: GI
Hs-578T = assay: Cytotoxicity against human HS 578T cells assessed as cell death at 10 uM incubated for 48 hrs by sulforhodamine B assay; type: functional, cell-based
A498 = assay: Cytotoxicity against human A498 cells assessed as cell death at 10 uM incubated for 48 hrs by sulforhodamine B assay; type: functional, cell-based
HCC 2998 = assay: Cytotoxicity against human HCC2998 cells assessed as cell death at 10 uM incubated for 48 hrs by sulforhodamine B assay; type: functional, cell-based
SW-620 = assay: Antitumor activity against human SW620 cells assessed as cell growth inhibition at 10 uM incubated for 48 hrs by sulforhodamine B assay; settings: SW-620, 48 h, read-out: GI

O=c1[nH]cc(F)c(=O)[nH]1 [FLUOROURACIL]
inhibition of growth at 10 µM (CCRF-CEM): 57.1%
inhibition of growth at 10 µM (HL-60(TB)): 47.9%
inhibition of growth at 10 µM (K562): 42.3%
inhibition of growth at 10 µM (MOLT-4): 43.1%
inhibition of growth at 10 µM (RPMI-8226): 41.4%
inhibition of growth at 10 µM (SR): 24.8%
inhibition of growth at 10 µM (HOP-92): 50.6%
inhibition of growth at 10 µM (NCI-H226): 69.5%
inhibition of growth at 10 µM (NCI-H23): 39%
inhibition of growth at 10 µM (NCI-H522): 58%
inhibition of growth at 10 µM (HCT-116): 17.8%
inhibition of growth at 10 µM (HCT-15): 26.5%
inhibition of growth at 10 µM (KM12): 40.7%
inhibition of growth at 10 µM (SF-268): 59%
inhibition of growth at 10 µM (SF-295): 69%
inhibition of growth at 10 µM (SNB-75): 65.9%
inhibition of growth at 10 µM (U-251): 50.3%
inhibition of growth at 10 µM (LOX IMVI): 30.4%
inhibition of growth at 10 µM (Malme-3M): 58.2%
inhibition of growth at 10 µM (SK-MEL-28): 19.5%
inhibition of growth at 10 µM (UACC-62): 39.7%
inhibition of growth at 10 µM (IGROV-1): 51.2%
inhibition of growth at 10 µM (OVCAR-3): 47.4%
inhibition of growth at 10 µM (OVCAR-4): 59.4%
inhibition of growth at 10 µM (NCI/ADR-RES): 47.6%
inhibition of growth at 10 µM (SK-OV-3): 77.5%
inhibition of growth at 10 µM (ACHN): 39.3%
inhibition of growth at 10 µM (SN12C): 54%
inhibition of growth at 10 µM (UO-31): 41.3%
inhibition of growth at 10 µM (PC-3): 58.2%
inhibition of growth at 10 µM (MCF7): 11.5%
inhibition of growth at 10 µM (MDA-MB-231): 78.1%
inhibition of growth at 10 µM (BT-549): 37.8%
Activity (Hs-578T): Active
Activity (A498): Active
Activity (HCC 2998): Active
inhibition of growth at 10 µM (SW-620): < 10%
